In ChEMBL document CHEMBL2203000, “Discovery of AC710, a Globally Selective Inhibitor of Platelet-Derived Growth Factor Receptor-Family Kinases” (ACS Med Chem Lett, 2012):
One block for each compound: values may come before it. Activity calls are given as the source filed them. The rule behind the calls is not given here.

How the values were obtained:
[1] = Aqueous solubility of the compound in water; type: physicochemical
Mus musculus [2] = experiment: Antiarthritic activity in collagen-induced arthritis mouse assessed as decrease in joint swelling and inflammation at 10 to 30 mg/kg, po for 15 days; type: functional, organism-based
MV4-11 [3] = experiment: Antitumor activity against human MV4-11 cells xenografted in SCID mouse assessed as reduction in tumor volume at 0.3 mg/kg for 2 weeks; type: functional, organism-based; parameters: dose 0.3 mg/kg
Mus musculus [4] = experiment: Antiarthritic activity in po dosed collagen-induced arthritis mouse assessed as decrease in paw clinical scores administered for 15 days; type: functional, organism-based
MV4-11 [5] = experiment: Antitumor activity against human MV4-11 cells xenografted in SCID mouse assessed as complete reduction in tumor volume at 3 to 30 mg/kg for 2 weeks; type: functional, organism-based
NFS-60 = experiment: Antitumor activity against mouse M-NFS-60 cells xenografted in CD-1 nude mouse assessed as inhibition of tumor growth measured after 4 days of tumor implantation; type: functional, cell-based
[6] = Aqueous solubility of the compound at pH 2 to 7.4; type: physicochemical; settings: buffer
[7] = AUC in Sprague-Dawley rat plasma at 10 mg/kg, po by LC-MS/MS analysis; type: ADME, organism-based; parameters: dose 10 mg/kg, route oral; settings: Sprague-Dawley, plasma
[8] = Oral bioavailability in Sprague-Dawley rat plasma at 10 mg/kg by LC-MS/MS analysis; type: ADME, organism-based; settings: Sprague-Dawley, plasma
[9] = Clearance in Sprague-Dawley rat plasma at 1 mg/kg, iv and 10 mg/kg, po by LC-MS/MS analysis; type: ADME, organism-based
Cytochrome P450 2C19 = Cytochrome P450 2C19 (Homo sapiens, UniProt P33261); experiment: Inhibition of CYP2C19; type: ADME
Chain of Cytochrome P450 2C19 (P33261 whole entry): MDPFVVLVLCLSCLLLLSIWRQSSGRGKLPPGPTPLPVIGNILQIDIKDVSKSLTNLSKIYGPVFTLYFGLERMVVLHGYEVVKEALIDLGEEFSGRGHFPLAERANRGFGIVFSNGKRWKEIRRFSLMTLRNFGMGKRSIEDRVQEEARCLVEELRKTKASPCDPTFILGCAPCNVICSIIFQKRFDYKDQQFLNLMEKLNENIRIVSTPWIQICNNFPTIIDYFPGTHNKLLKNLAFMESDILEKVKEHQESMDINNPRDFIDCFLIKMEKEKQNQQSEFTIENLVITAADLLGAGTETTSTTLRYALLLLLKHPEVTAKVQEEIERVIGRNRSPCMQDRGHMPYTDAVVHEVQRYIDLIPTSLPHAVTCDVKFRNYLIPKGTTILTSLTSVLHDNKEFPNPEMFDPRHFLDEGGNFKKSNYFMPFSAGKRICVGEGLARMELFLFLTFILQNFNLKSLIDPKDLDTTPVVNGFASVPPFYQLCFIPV

Cytochrome P450 2C9 = Cytochrome P450 2C9 (Homo sapiens, UniProt P11712); experiment: Inhibition of CYP2C9; type: ADME
Chain of Cytochrome P450 2C9 (P11712 whole entry): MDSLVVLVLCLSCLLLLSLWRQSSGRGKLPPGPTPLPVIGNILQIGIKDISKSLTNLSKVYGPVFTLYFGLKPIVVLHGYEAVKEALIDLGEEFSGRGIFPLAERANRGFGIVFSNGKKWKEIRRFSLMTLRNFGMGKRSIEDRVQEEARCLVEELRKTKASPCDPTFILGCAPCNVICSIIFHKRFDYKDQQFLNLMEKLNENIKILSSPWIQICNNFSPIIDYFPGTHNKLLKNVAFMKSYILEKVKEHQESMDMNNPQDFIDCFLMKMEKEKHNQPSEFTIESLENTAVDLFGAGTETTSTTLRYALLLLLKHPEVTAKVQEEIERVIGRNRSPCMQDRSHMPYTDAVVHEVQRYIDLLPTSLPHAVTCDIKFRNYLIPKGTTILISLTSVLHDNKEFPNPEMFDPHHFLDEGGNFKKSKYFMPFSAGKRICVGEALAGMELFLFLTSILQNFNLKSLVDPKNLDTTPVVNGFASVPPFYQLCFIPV

Rattus norvegicus [10] = experiment: Toxicity in rat at 200 mg/kg administered for 7 days; type: organism-based; parameters: dose 200 mg/kg; settings: in vivo, 168 h
Rattus norvegicus [11] = experiment: Toxicity in rat assessed as diarrhea at 800 mg/kg administered for 7 days; type: organism-based; parameters: dose 800 mg/kg; settings: in vivo, 168 h
Cytochrome P450 2D6 = Cytochrome P450 2D6 (Homo sapiens, UniProt P10635); experiment: Inhibition of CYP2D6; type: ADME
Chain of Cytochrome P450 2D6 (P10635 whole entry): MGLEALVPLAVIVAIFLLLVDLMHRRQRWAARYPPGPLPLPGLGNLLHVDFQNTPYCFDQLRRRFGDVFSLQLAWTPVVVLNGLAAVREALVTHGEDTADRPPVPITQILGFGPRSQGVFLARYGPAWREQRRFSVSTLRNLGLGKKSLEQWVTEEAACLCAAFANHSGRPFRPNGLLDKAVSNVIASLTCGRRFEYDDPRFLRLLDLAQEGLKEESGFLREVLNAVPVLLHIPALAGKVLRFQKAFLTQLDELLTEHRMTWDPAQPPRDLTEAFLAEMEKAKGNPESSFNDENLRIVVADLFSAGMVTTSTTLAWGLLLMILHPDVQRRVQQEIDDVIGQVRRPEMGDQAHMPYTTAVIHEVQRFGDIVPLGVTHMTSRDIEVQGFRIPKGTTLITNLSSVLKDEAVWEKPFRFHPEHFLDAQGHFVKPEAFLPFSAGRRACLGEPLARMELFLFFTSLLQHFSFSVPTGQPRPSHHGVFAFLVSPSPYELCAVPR

[12] = AUC in po dosed CD-1 mouse by LC-MS/MS analysis; type: ADME, organism-based; settings: plasma
Cytochrome P450 3A4 = Cytochrome P450 3A4 (Homo sapiens, UniProt P08684); experiment: Inhibition of CYP3A4; type: ADME
Chain of Cytochrome P450 3A4 (P08684 whole entry): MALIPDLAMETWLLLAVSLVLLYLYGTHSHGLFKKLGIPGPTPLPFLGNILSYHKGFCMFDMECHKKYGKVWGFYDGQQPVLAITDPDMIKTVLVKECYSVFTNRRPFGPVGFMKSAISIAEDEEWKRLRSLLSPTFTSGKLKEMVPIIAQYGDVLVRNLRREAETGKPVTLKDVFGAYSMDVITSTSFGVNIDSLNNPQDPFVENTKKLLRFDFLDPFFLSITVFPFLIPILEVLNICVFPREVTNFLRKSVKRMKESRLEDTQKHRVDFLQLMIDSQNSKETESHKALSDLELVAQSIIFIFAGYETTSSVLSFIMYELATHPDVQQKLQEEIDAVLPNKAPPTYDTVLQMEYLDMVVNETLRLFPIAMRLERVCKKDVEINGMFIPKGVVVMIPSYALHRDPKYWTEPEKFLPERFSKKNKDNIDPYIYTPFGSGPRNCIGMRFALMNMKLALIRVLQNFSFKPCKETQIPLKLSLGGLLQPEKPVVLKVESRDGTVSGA

[13] = molecular target: T1, Mast/stem cell growth factor receptor Kit (Homo sapiens, UniProt P10721); experiment: Binding affinity to KIT expressed in HEK-293 cells; type: cell-based, HEK293
T1 sequence (P10721 whole entry): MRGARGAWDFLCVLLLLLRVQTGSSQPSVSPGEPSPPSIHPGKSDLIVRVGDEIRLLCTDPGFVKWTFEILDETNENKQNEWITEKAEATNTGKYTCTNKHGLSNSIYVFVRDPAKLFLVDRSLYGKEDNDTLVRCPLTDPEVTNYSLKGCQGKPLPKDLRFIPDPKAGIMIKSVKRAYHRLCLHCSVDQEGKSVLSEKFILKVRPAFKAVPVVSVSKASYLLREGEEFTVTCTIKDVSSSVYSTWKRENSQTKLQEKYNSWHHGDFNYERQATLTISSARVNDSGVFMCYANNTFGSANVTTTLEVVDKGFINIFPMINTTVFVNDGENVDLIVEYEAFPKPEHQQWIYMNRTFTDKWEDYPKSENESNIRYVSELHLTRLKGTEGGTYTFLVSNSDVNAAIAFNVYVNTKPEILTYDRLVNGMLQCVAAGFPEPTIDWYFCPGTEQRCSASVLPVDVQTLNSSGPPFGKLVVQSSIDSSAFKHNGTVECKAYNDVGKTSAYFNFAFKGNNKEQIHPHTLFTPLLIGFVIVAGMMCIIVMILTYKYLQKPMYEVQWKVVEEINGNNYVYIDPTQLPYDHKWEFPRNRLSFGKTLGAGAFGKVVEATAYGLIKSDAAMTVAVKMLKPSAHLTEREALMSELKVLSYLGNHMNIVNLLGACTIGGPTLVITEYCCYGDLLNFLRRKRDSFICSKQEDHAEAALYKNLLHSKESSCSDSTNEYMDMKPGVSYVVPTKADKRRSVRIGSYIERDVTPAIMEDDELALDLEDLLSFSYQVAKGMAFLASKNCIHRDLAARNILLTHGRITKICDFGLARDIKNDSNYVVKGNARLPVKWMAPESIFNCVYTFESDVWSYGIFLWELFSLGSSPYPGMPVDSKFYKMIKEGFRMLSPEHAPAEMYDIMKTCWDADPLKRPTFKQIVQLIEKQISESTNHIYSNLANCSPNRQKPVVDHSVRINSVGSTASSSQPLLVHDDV

[14] = molecular target: T1, Mast/stem cell growth factor receptor Kit; experiment: Inhibition of KIT phosphorylation in human H526 cells; type: cell-based
[15] = Antitumor activity against mouse M-NFS-60 cells xenografted in CD-1 nude mouse assessed as inhibition of tumor growth at 30 mg/kg, po measured after 4 of tumor implantation; type: functional; settings: read-out: TGI
[16] = Antitumor activity against mouse M-NFS-60 cells xenografted in CD-1 nude mouse assessed as inhibition of tumor growth at 100 mg/kg, po measured after 4 of tumor implantation; type: functional; settings: read-out: TGI
[17] = Antitumor activity against mouse M-NFS-60 cells xenografted in CD-1 nude mouse assessed as inhibition of tumor growth at 10 mg/kg, po measured after 4 of tumor implantation; type: functional; settings: read-out: TGI
Cytochrome P450 1A2 = molecular target: T2, Cytochrome P450 1A2 (Homo sapiens, UniProt P05177); experiment: Inhibition of CYP1A2; type: ADME
T2 sequence (P05177 whole entry): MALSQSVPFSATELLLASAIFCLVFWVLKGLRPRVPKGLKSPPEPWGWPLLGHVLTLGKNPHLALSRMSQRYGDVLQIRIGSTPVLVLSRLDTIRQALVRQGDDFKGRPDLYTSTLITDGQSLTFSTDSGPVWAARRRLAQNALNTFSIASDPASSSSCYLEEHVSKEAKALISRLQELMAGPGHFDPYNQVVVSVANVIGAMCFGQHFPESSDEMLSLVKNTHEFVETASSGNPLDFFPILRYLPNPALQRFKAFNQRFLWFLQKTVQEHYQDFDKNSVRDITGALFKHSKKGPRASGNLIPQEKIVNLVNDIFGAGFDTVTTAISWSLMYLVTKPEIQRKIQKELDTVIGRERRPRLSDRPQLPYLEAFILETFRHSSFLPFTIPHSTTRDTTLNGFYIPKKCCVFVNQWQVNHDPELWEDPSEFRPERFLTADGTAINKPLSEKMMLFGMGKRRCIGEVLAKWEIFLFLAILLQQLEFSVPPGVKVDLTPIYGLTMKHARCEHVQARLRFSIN

solubility [1]: 1130 µg/mL
SMILES: CCN1CCC(Oc2ccc(C(=O)Nc3ccc(NC(=O)Nc4cc(C(C)(C)C)on4)cc3)nc2)CC1.CS(=O)(=O)O

SMILES: CCN1C(C)(C)CC(Oc2ccc(C(=O)Nc3ccc(NC(=O)Nc4cc(C(C)(C)C)on4)cc3)nc2)CC1(C)C
inhibition (Mus musculus [2]): Active
Activity (MV4-11 [3]): Active
inhibition (Mus musculus [4]): Active
Activity (MV4-11 [5]): Active
inhibition (NFS-60): Dose-dependent effect

solubility [6]: < 5 µg/mL
AUC [7]: 0.8 µM·h
bioavailability [8]: 9%
clearance [9]: 47 mL/min/kg
SMILES: CC(C)(C)c1cc(NC(=O)Nc2ccc(NC(=O)c3cc4ccccc4cn3)cc2)no1

SMILES: CN1C(C)(C)CC(Oc2ccc(C(=O)Nc3ccc(NC(=O)Nc4cc(C(C)(C)C)on4)cc3)nc2)CC1(C)C.CS(=O)(=O)O
solubility [1]: > 1000 µg/mL

IC50 (Cytochrome P450 2C19): > 40 µM
AUC [7]: 4.8 µM·h
IC50 (Cytochrome P450 2C9): > 40 µM
IC50 (Cytochrome P450 2D6): > 40 µM
AUC [12]: 9.9 µM·h
IC50 (Cytochrome P450 3A4): > 40 µM
Kd [13]: 0.0006 µM
IC50 [14]: 0.0079 µM
bioavailability [8]: 20%
IC50 (Cytochrome P450 1A2): > 40 µM
clearance [9]: 25.8 mL/min/kg
SMILES: CCN1CCC(Oc2ccc(C(=O)Nc3ccc(NC(=O)Nc4cc(C(C)(C)C)on4)cc3)nc2)CC1
Activity (Rattus norvegicus [10]): Non-toxic
Activity (Rattus norvegicus [11]): Toxic
inhibition in vivo at 30 mg/kg [15]: 46%
inhibition in vivo at 100 mg/kg [16]: 73%
inhibition in vivo at 10 mg/kg [17]: 31%
